Test results as given in US5356915A, “Tetralones with pharmacological activity, compositions containing them” (J. Uriach & Cia. S.A., priority 1992, dated 1994).

How the values were obtained:
[1] = system: noradrenaline induced contractions in isolated rat portal vein; experiment: Inhibition of noradrenaline induced contractions in isolated rat portal vein (Test 1); details: 0.5 h, noradrenaline 3 μM, 30 min incubation, 37° C., pH 7.2, mean of at least two experiments
Method: Test 1: Inhibition of noradrenaline induced contractions in isolated rat portal vein.
Portal vein was extracted from adult male rats (b.w. 200-250 g), that had been stunned and exanguinated. Vein strips were suspended in an isolated organ bath (Letica) containing a physiological saline solution continuously bubbled with 5% CO2, 95% O2 gas at 37° C., pH 7.2. Contractions were induced by noradrenaline (3 μM) and were reverted after thorough washing with physiological saline solution. Portal vein contraction was measured with an isometric force transducer at an initial tension of 1 g. After two equal contractions with noradrenaline, performed in order to measure the tissue's basal response, the test compounds were incubated for 30 minutes and a new contraction was induced. The concentration that produces a 50% inhibition (IC50) versus the basal response was calculated. The experiment was repeated at least two times and the mean was calculated.

[2] = system: arterial pressure in conscious spontaneously hypertensive rats; experiment: Lowering of the arterial pressure in conscious spontaneously hypertensive rats (Test 2); format: in vivo, rat; details: conscious spontaneously hypertensive male rats, caudal artery, at least 4 animals
Method: Test 2: Lowering of the arterial pressure in conscious spontaneously hypertensive rats.
Spontaneously hypertensive male rats (b.w. 200-250 g) were used. Diastolic and systolic arterial pressure were measured at the caudal artery using a sphygnomanometer (Letica 5007 and 5007/4) attached to the animal's tail. To ensure rapid and reliable data, animals were placed on a heating plate at 37° C., with the aim of producing a vasodilatation that ensured better fixation of the rat tail to the transducer chamber. During the experiment, rats were conscious and fixed by a clamp. The test products were administered orally. Arterial pressure was measured every 60 minutes over a period of 4 hours and 10 minutes before the administration of the test compound. […]

[3] = system: isolated guinea pig tracheal spirals; experiment: Direct relaxation of isolated guinea pig tracheal spirals (Test 3); details: Cavia porcellus; 50% of maximum relaxation (isoproterenol 1×10^-6 M = maximum); isolated guinea pig tracheae; 37° C., pH 7.4; mean of at least two experiments
Method: Test 3 -Direct relaxation of isolated guinea pig tracheal spirals.
Tracheae were extracted from male guinea pigs of (b.w. 400 g) that had been stunned and exanguinated. Then, tracheae were cut in zigzag sections and placed in an isolated organ bath (Letica) containing Krebs-Henseleit solution at 37° C., pH 7.4, continuously bubbled with carbogen (95% O2 and 5% CO2). The relaxation of the tracheae was measured using an isometric force transducer. The basal tension was 0.5 g. The test compounds were cumulatively added to the bath and the effective concentration that produced 50% of the maximum relaxation (EC50) was calculated. The maximum relaxation was taken to be the relaxation induced by isoproterenol at 1×10^-6 M. The experiment was repeated at least two times and the mean was calculated.

Compound	IC50 [1] [nM]	Pressure Drop ± SEM ([2]; 1 mg/Kg p.o. (footnote *)) [mm Hg]	EC50 [3] [nM]	Pressure Drop ± SEM ([2]; 0.1 mg/Kg p.o.) [mm Hg]
CC1(C)CC(c2cccc[n+]2[O-])c2cc(C#N)ccc2C1=O (racemic) [Compound 12, (±)-2,2-Dimethyl-4-(N-oxide-2-pyridyl)-1-oxo-1,2,3,4-tetrahydronaphthalen-6-carbonitrile]	200	95 ± 9	3000	–
CC1(C)C=C(c2cccc[n+]2[O-])c2cc(Br)ccc2C1=O [Compound 4, 6-Bromo-1,2-dihydro-2,2-dimethyl-4-(N-oxide-2-pyridyl)naphthalen-1-one]	800	–	200	53 ± 8
CC1(C)C=C(c2cccc[n+]2[O-])c2cc(C#N)ccc2C1=O [Compound 10, 1,2-Dihydro-2,2-dimethyl-4-(N-oxide-2-pyridyl)-1-oxonaphthalen-6-carbonitrile]	900	–	200	53 ± 15
CC1(C)C=C(c2cccc[n+]2[O-])c2cc(C(F)(F)C(F)(F)F)ccc2C1=O [Compound 15, 1,2-Dihydro-2,2-dimethyl-4-(N-oxide-2-pyridyl)-6-pentafluoroethylnaphthalen-1-one]	600	–	100	98 ± 20
CC1(C)C=C(c2cccc[n+]2[O-])c2cc(Cl)c(Cl)cc2C1=O [Compound 18]	500	–	200	74 ± 42
